In patent EP0318860B1, “Substituted alkylamine derivatives” (BANYU PHARMACEUTICAL CO., LTD., priority 1987, dated 1989):
≈ marks a conversion by molar mass, not a printed value. Counter-ions that a name gives are not always drawn. Like-named read-outs stand apart in the source and are kept apart here.

Tests used:
Candida albicans = test: Antimycotic activity test (Sabouraud's agar dilution, MIC); type: cell-based; settings: 48 h
Description: (§1) Each of the test fungi was cultured (Candida albicans was cultured overnight in Sabouraud broth; Trichophyton was inoculated in Sabouraud's agar and cultured for 2 days, after which the spores were harvested). Thereafter, one platinum loopful of Candida albicans or Trichophyton (10⁶ cells/ml for C. albicans; 10⁶ spores/ml for Trichophyton) was inoculated in Sabouraud's agar containing the test drug in various concentrations, and cultured (at 37 °C for 2 days for C. albicans; at 28 °C for 5 days for Trichophyton). Then, the minimum growth inhibition concentration (MIC) was measured. […]

Trichophyton = test: as above; type: cell-based; settings: 120 h
Description: as §1

rat squalene epoxidase = biological target: T1, rat squalene epoxidase (Rattus norvegicus, UniProt P52020); test: Squalene epoxidase inhibiting activity (3H-squalene to squalene-2,3-epoxide, solubilized liver microsome fraction); type: biochemical; settings: 8 µM 3H-squalene, 37 °C, 30 minutes, read-out: 50 % inhibitory concentration (IC50)
T1 construct: Livers were extracted and homogenized; from tissue; host or cells: liver of SD-strain female rats; microsomes solubilized with 2 % Triton X-100, 105000 x g supernatant
T1 sequence (P52020 whole entry): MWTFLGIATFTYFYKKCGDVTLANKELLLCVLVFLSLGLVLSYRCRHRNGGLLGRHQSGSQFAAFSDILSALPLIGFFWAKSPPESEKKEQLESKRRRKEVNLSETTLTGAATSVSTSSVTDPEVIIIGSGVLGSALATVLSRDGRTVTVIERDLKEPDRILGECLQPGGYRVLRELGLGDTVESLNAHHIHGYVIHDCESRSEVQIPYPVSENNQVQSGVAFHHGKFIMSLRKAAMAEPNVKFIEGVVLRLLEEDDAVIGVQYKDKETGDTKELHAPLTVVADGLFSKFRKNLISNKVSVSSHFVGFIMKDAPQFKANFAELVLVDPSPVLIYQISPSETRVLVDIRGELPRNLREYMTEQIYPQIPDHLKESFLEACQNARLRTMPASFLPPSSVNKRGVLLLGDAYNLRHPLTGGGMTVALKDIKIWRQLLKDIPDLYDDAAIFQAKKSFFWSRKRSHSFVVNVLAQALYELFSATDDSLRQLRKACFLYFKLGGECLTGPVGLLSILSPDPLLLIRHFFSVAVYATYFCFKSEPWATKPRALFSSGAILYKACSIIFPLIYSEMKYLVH
Description: The rat squalene epoxidase was prepared by the method described in J. Biol. Chem., vol.
SD-strain female rats were killed by exsanguination. Livers were extracted and homogenized with in the presence of 2 volumes of 0.1M Tris-HCl buffer (pH 7.5). The homogenate was centrifuged at 9750 Xg for 10 minutes. The supernatant fraction was further centrifuged at 105000 Xg for 1 hour. The sediment was washed with 0.1M Tris-HCl buffer (pH 7.5), and then centrifuged at 105000 Xg for 1 hour. The microsomes obtained were suspended in 0.1M Tris-HCl buffer (pH 7.5) so that the amount of proteins was 40 mg/ml, and under ice cooling, the suspension was stirred in the presence of 2 % Triton X-100 to solubilize the enzyme. After the solubilization, the solution was diluted to a Triton X-100 concentration of 0.5 % with 1 mM EDTA and 1 mM dithiothreitol, and centrifuged at 105000 Xg for 1 hour. The resulting supernatant fraction was used in the following test as a squalene epoxidase fraction.
The squalene epoxidase activity was assayed in accordance with the method described in J. Biol. Chem., vol.
Three microliters of a dimethyl sulfoxide solution of a test drug was added to a solution composed of 0.2 ml of the squalene epoxidase fraction prepared in (1) [proteins 0.4 mg, 0.5 % Triton X-100, […] Tris-HCl buffer (pH 7.5)], 100 µM FAD, 1 mM NADPH, 1 mM EDTA and 8 µM ³H-squalene-Tween 80 emulsion to adjust the total amount of the solution to 0.3 ml. The solution was incubated at 37 °C for 30 minutes with shaking. Then, 0.3 ml of a 10 % methanolic potassium hydroxide was added to stop the reaction, and the reaction mixture was left to stand at room temperature for 1 hour. The non-saponified material was extracted with petroleum ether, and the solvent was evaporated under a nitrogen stream. […] The position of the resulting ³H-squalene-2,3-epoxide on TLC was determined using ergosterol acetate as a marker, and the ³H-squalene-2,3-epoxide portion on the TLC was cut off. The TLC strip was immersed in a toluene-type scintillator, and measured by a liquid scintillation counter.

[1] = system: cholesterol biosynthesis in the cultured Hep-G2 cells; test: Inhibitory activity on cholesterol biosynthesis in cultured cells ([14C] acetate incorporation); type: cell-based; settings: HepG2; Human hepatoma (Hep-G2) cells, [14C] sodium acetate, 6 hours; read-out: 50% inhibitory concentration (IC₅₀)
Description: Human hepatoma (Hep-G2) cells were cultured in 10 cm² dishes until they formed a monolayer. One milliliter of the culture medium was replaced, and 1 µCi of [¹⁴C] sodium acetate and 1 microliter of a dimethyl sulfoxide solution of a test drug were added, and the cells were cultured at 37 °C in air containing 5 % of carbon dioxide for 6 hours.
After the cultivation, the medium was aspirated, and the cells were cooled with ice, and washed with Dulbecco's phosphate buffered saline solution. The resulting cells were scraped by a rubber policeman, and collected by centrifugation. The cells collected were dissolved in 400 microliters of 0.3N sodium hydroxide. A 200 microliters aliquot of the solution was used for extraction, and the remainder, for protein determination.
To 200 microliters of the extracted cells, 15 % ethanolic potassium hydroxide was added, and saponification was carried out at 75 °C for 1 hour. Water (1 ml) was then added, and the mixture was extracted with 2 ml of petroleum ether twice to remove non-saponified materials. The petroleum ether extracts were washed with 1 ml of water, and evaporated under a nitrogen stream. The residue was spotted on a pre-coated silica gel TLC plate using a small amount of chloroform, and developed with hexane/ethyl ether/acetic acid (85:15:4). Cholesterol and squalene portions on the TLC were detected with iodine, and the corresponding TLC portions were cut out. The TLC strips were immersed in a toluene-type scintillator, and radioactivity was counted by a liquid scintillation counter. The results were corrected by the amount of proteins measured by the method described in J. Biol. Chem., vol. 193, page 265, 1951. The 50 % inhibitory concentration (IC₅₀ value) of the compound of the invention on cholesterol biosynthesis in the cultured Hep-G2 cells was calculated.

cholesterol biosynthesis = test: Test on inhibition of cholesterol biosynthesis in vivo ([14C] acetate, plasma 14C-cholesterol); settings: male SD rats, 100 mg/kg orally; for ¹⁴C-cholesterol: dpm of 14C-cholesterol present in 1 ml of the plasma; for Inhibition of cholesterol biosynthesis: test group compared with control group
Description: Male SD rats, 5 weeks of age, were used in the in vivo test. The rats were kept for 9 days in an environment of reversed light cycle (i.e., dark between 6:00 am and 6:00 pm). The rats were allowed to take a solid diet and water freely. The test drug was orally administered two hours before dark sixth hour when the cholesterol synthesis reached a maximum. Compounds 6 and 44 were administered as a suspension in a 0.5 % aqueous solution of methyl cellulose. Compound 45 was administered in a 0.5 % aqueous solution of methyl cellulose containing 5 % of dimethyl sulfoxide and 1 % Tween 80. The dose was 1 ml/100 g of body weight.
An equal volume of 0.5 % methyl cellulose was administered to a control group. One hour after administration of the test drug, [¹⁴C] sodium acetate (56 mCi/mmole) was intraperitoneally administered to the rats in a dose of 20 µCi/100 g of body weight. At dark sixth hour, a blood sample was obtained from the abdominal artery under ether anesthesia, and the plasma was separated by centrifugation.
Two milliliters of plasma was mixed with a 15 % methanolic potassium hydroxide and saponified by heating at 75 °C for 3 hours. The resulting sample was extracted with 2 ml of petroleum ether twice. The extracts were washed with 2 ml of distilled water, and finally evaporated under a nitrogen stream. The resulting residue was dissolved in a small amount of ethyl ether, and all the solution was spotted on a pre-coated silica gel TLC plate. The plate was developed with a solvent system composed of hexane/ethyl ether/acetic acid (85:15:4). Color formation was carried out by iodine, and the radioactivity of the cholesterol portion was measured by a liquid scintillation counter.
The results were expressed in dpm of the resulting ¹⁴C-cholesterol present in 1 ml of the plasma. The inhibition of cholesterol biosynthesis was calculated by comparing the amounts of ¹⁴C-cholesterol biosynthesized in the test group and that in the control group.

[2] = C. albicans, 37 °C for 2 days, read-out: MIC
[3] = 28 °C for 5 days, read-out: MIC

| MIC (Candida albicans; [2]) [µg/mL] | MIC (Trichophyton; [3]) [µg/mL] | Structure (SMILES) | IC50 (rat squalene epoxidase) [nM] | IC50 [1] [nM] | ¹⁴C-cholesterol (cholesterol biosynthesis) [dpm] | Inhibition of cholesterol biosynthesis (cholesterol biosynthesis) [%] | MIC (Candida albicans) [µg/mL] | MIC (Trichophyton) [µg/mL] |
| --- | --- | --- | --- | --- | --- | --- | --- | --- |
| > 100 | > 100 | CN(C/C=C/C#CC(C)(C)C)Cc1cccc(OCc2ccccc2)c1.Cl [Compound 2, (E)-N-(6,6-dimethyl-2-hepten-4-ynyl)-N-methyl-3-benzyloxybenzylamine hydrochloride] | 1400 | 1500 |  |  |  |  |
|  |  | Cc1ccccc1COc1cccc(CN(C)C/C=C/C#CC(C)(C)C)c1.Cl [Compound 6, (E)-N-(6,6-dimethyl-2-hepten-4-ynyl)-N-methyl-3-(2-methylbenzyloxy)benzylamine hydrochloride] | 560 | 340 | 862±387 | 53 |  |  |
| > 100 | > 100 | CN(C/C=C/C#CC(C)(C)C)Cc1cccc(OCc2cccc3ccccc23)c1 [Compound 18, (E)-N-(6,6-dimethyl-2-hepten-4-ynyl)-N-methyl-3-(1-naphthylmethyloxy)benzylamine] | 250 |  |  |  |  |  |
|  |  | CCCN(C/C=C/C#CC(C)(C)C)Cc1cccc(OCc2ccccc2)c1 [Compound 37, (E)-N-(6,6-dimethyl-2-hepten-4-ynyl)-N-propyl-3-benzyloxybenzylamine] | 270 | 85 |  |  |  |  |
|  |  | CCN(C/C=C/C#CC(C)(C)C)Cc1cccc(OCc2ccccc2C)c1.Cl [Compound 44, (E)-N-(6,6-dimethyl-2-hepten-4-ynyl)-N-ethyl-3-(2-methylbenzyloxy)benzylamine hydrochloride] | 160 | 50 | 568±313 | 69 |  |  |
| > 100 | > 100 | CCCN(C/C=C/C#CC(C)(C)C)Cc1cccc(OCc2ccccc2C)c1.Cl [Compound 45, (E)-N-(6,6-dimethyl-2-hepten-4-ynyl)-N-propyl-3-(2-methylbenzyloxy)benzylamine hydrochloride] | 120 | 83 | 274±155 | 85 |  |  |
|  |  | CCN(C/C=C/C#CC(C)(C)C)Cc1cccc(OCc2cccc(C#N)c2)c1 [Compound 46, (E)-N-(6,6-dimethyl-2-hepten-4-ynyl)-N-ethyl-3-(3-cyanobenzyloxy)benzylamine] | 150 | 110 |  |  |  |  |
|  |  | CCCN(C/C=C/C#CC(C)(C)C)Cc1cccc(OCc2cccc(C#N)c2)c1 [Compound 47, (E)-N-(6,6-dimethyl-2-hepten-4-ynyl)-N-propyl-3-(3-cyanobenzyloxy)benzylamine hydrochloride] | 150 | 90 |  |  |  |  |
| > 100 | > 100 | CC(C)=CCOc1cccc(CN(C)C/C=C/C#CC(C)(C)C)c1 [Compound 61, (E)-N-(6,6-dimethyl-2-hepten-4-ynyl)-N-methyl-3-(3-methyl-2-butenyloxy)benzylamine] | 6100 |  |  |  |  |  |
| > 100 | > 100 | CN(C/C=C/C#CC(C)(C)C)Cc1cccc(OCc2cccc(C#N)c2)c1.Cl [Compound 64, (E)-N-(6,6-dimethyl-2-hepten-4-ynyl)-N-methyl-3-(3-cyanobenzyloxy)benzylamine hydrochloride] | 510 | 120 |  |  |  |  |
|  |  | CN(C/C=C/C#CC(C)(C)C)Cc1cccc(OCc2cccc(-c3cnco3)c2)c1 [Compound 78, (E)-N-(6,6-dimethyl-2-hepten-4-ynyl)-N-methyl-3-[3-(5-oxazolyl)benzyloxy]benzylamine] | 63 | 20 |  |  |  |  |
|  |  | CN(C/C=C/C#CC(C)(C)C)Cc1cccc(OCc2cccc(-c3cncs3)c2)c1 [Compound 79, (E)-N-(6,6-dimethyl-2-hepten-4-ynyl)-N-methyl-3-[3-(5-thiazolyl)benzyloxy]benzylamine] | 89 | 23 |  |  |  |  |
| > 100 | > 100 | CN(C/C=C/C#CC(C)(C)C)Cc1cccc(/C=C/c2ccccc2)c1.Cl [Compound 97, N-[(E)-6,6-dimethyl-2-hepten-4-ynyl]-N-methyl-3-[(E)-styryl]benzylamine hydrochloride] | 320 |  |  |  |  |  |
|  |  | Cc1ccccc1CNc1cccc(CN(C)C/C=C/C#CC(C)(C)C)c1 [Compound 103, (E)-N-(6,6-dimethyl-2-hepten-4-ynyl)-N-methyl-3-(2-methylbenzylamino)benzylamine hydrochloride] | 360 | 450 |  |  |  |  |
| > 100 | > 100 | CN(C/C=C/C#CC(C)(C)C)Cc1cccc(CCc2ccccc2)c1 [Compound 107, (E)-N-(6,6-dimethyl-2-hepten-4-ynyl)-N-methyl-3-(beta-phenethyl)benzylamine] | 3600 |  |  |  |  |  |
| > 100 | > 100 | CN(C/C=C/C#CC(C)(C)C)Cc1cc(OCc2ccccc2)ccn1.Cl.Cl [Compound 110, (E)-N-(6,6-dimethyl-2-hepten-4-ynyl)-N-methyl-4-benzyloxy-2-pyridylmethylamine dihydrochloride] | 1500 |  |  |  |  |  |
|  |  | CN(C/C=C/C#CC(C)(C)C)Cc1cccc2ccccc12 [terbinafine, reference compound] | > 100000 |  |  |  | 0.3 (≈ 1.03 µM) | < 0.01 |
